The source of these data is patent US20210372995A1, “BIOMIMETIC PLATFORMS TO MODEL VASCULAR PATHOPHYSIOLOGY, DIAGNOSTICS, AND THERAPY” (The Johns Hopkins University, priority 2017, published 2021).

The test system of data set [1] is fibroblasts. The following applies: 100 µM; cited from earlier work.
The test system of data set [2] is human coronary artery endothelial cells. The following applies: 20 ng/mL; cited from earlier work.
The test system of data set [3] is HAEC. The following applies: 1 μM, 60-minute incubation; HAEC on well plates; cited from earlier work.
The conditions of data set [4]: cited from earlier work.
For data set [5], the system named is hTERT HAEC. As to the kind of experiment: NO production by hTERT HAEC in 3D scaffolds (conditioned media, Seivers NO analyzer). The format is cell-based, human. The following applies: 1 μM, 30 minutes; HAEC growing 2 months in 3D scaffolds. The procedure: Endothelial cells have many functions including the production of nitric oxide (NO). NO is a vasoactive agent important for modulating the vascular smooth muscle tone (Davidge, S. T., et al., Circ Res 1995, 77 (2), 274-83). The confluent cells growing for 2 months in the tubes were tested for NO production to determine endothelial function and viability. To qualitatively assess the NO production, 50 μL of the conditioned-media was analyzed using Seivers NO analyzer. FIGS. 13A-13C show NO production by hTERT HAEC with and without calcium ionophore stimulation. A 7- to 35-fold increase of NO was observed when HAEC growing in 3D scaffolds was stimulated with 1 μM A23187 calcium ionophore for 30 minutes. Others have reported twofold NO increase after 60-minute incubation of HAEC in 1 μM ionomycin grown on well plates (Cosentino, F., et al., Circulation 1997, 96 (1), 25-8). Using bovine coronary microvascular endothelial cells, a 3-fold increase was observed when stimulated with 1 μM A23187 calcium ionophore for 5 hours (Davidge, S. T., et al., Circ Res 1995, 77 (2), 274-83). […] There is difficulty in direct comparison of results with reported observations due to differences in methodology, analysis, and cell types. […] The higher increase in NO production warrants further investigation if 3D geometry affects HAEC NO production. […]

Data set [6] relates to bovine coronary microvascular endothelial cells. The following applies: 1 μM, 5 hours; cited from earlier work.
Data set [7] relates to HPASMC. As to the kind of experiment: Contractility of aligned HPASMC on microwrinkled PDMS. It is filed as cell-based, human. The settings on record: 1 μM, 10 minutes. The procedure:
HPASMC cultivated on microwrinkled PDMS were treated with angiotensin ii (1 μM) and serial phase images were taken (1, 3, 10 minutes, from left to right) to assess cell contraction. […] Scale bar=50 μm.
A 6 μm PDMS film was stretched by 20% with a uniaxial stretching system, followed by exposure to oxygen plasma (Plasma Etcher Inc.) at 80 W for 60 minutes to generate wrinkles (FIG. 1A-FIG. 1C and FIG. 16). […] To test the contractility of aligned HPASMC, HPASMC were exposed to angiotensin II (1 μM; Sigma Aldrich, St. Louis, Mo.) for 10 minutes. […] A more quantitative measurement of SMC contraction is employed as described in the Experimental Design section.

On to `COc1ccccc1Oc1c(NS(=O)(=O)c2ccc(C(C)(C)C)cc2)nc(-c2ncccn2)nc1OCCO` [Bosentan], for which, in data set [1], the proliferation in fibroblasts entry is “altered” and the “smooth muscle alpha actin expression in fibroblasts” value is “altered”.

hepatocyte growth factor: the NO increase entry in data set [2] is reported as “twofold”.

For `C[C@H](CCC(=O)O)C[C@H](C)C[C@H](C)C(=O)/C=C(\O)[C@H](C)C[C@H](C)C/C=C/[C@@H](C)[C@@H](O)[C@@H](C)[C@@H](O)C[C@@H]1CC[C@@](C)([C@H]2CC[C@@](C)([C@@H](C)O)O2)O1` [ionomycin], in data set [3], the NO increase entry is reported as “twofold”.

For orientation: half-life means the time needed for the level to fall by half in the phase considered. As for `CCCCC[C@H](O)/C=C/[C@@H]1[C@H]2C/C(=C/CCCC(=O)O)O[C@H]2C[C@H]1O` [Prostacyclin], the half-life in data set [4] is 3 to 5 min.

Take `CNc1ccc2oc(C[C@H]3O[C@@]4(CC[C@H]3C)O[C@H]([C@H](C)C(=O)c3ccc[nH]3)[C@H](C)C[C@H]4C)nc2c1C(=O)O` [A23187]: the “increase of NO” value in data set [5] was 7- to 35 fold. Moreover, the NO increase in data set [6] is 3 fold.

Turning to “angiotensin II (DRVYIHPF; Angiotensin-2; UniProt P01019 25-32, looked up) [contractile agent (Sigma Aldrich)]”, the “cell contraction of aligned HPASMC” value in data set [7] is recorded as “time-dependent contraction”.
